Measurements as given in the NIST ThermoML archive (doi:10.1021/je700174h).

Assays:
[1] = excess molar enthalpy (molar enthalpy of mixing); xn = mol fraction of the nth substance listed; settings: 323.15 K, Liquid, Flow calorimetry
[2] = 323.15 K; Liquid; mass and volume balance equations

COC [dimethyl ether] + CCCCCCCCCC
[1]
Settings | excess molar enthalpy [kcal/mol]
x1 = 0.1299 | 0.0567
x1 = 0.2396 | 0.0977
x1 = 0.3336 | 0.126
x1 = 0.4149 | 0.143
x1 = 0.486 | 0.152
x1 = 0.5487 | 0.156
x1 = 0.6043 | 0.156
x1 = 0.6541 | 0.151
x1 = 0.6989 | 0.145
x1 = 0.7393 | 0.137
x1 = 0.7761 | 0.126
x1 = 0.8097 | 0.114
x1 = 0.8405 | 0.102
x1 = 0.8687 | 0.0887
x1 = 0.8948 | 0.0747
x1 = 0.919 | 0.0603
x1 = 0.9414 | 0.0454
x1 = 0.9623 | 0.0305
x1 = 0.9818 | 0.015

CCCCCCCCCC [decane]
Settings | vapor or sublimation pressure [kPa]
[2] | 1.18

COC [dimethyl ether]
Settings | vapor or sublimation pressure
[2] | 1144.2 kPa [middle of 6 runs]

COC [dimethyl ether] + CCCCCCCCCCCC
[1]
Settings | excess molar enthalpy [kcal/mol]
x1 = 0.1484 | 0.067
x1 = 0.269 | 0.111
x1 = 0.3688 | 0.14
x1 = 0.4529 | 0.157
x1 = 0.5247 | 0.164
x1 = 0.5866 | 0.167
x1 = 0.6407 | 0.164
x1 = 0.6882 | 0.158
x1 = 0.7304 | 0.149
x1 = 0.7681 | 0.139
x1 = 0.8019 | 0.127
x1 = 0.8324 | 0.115
x1 = 0.8601 | 0.101
x1 = 0.8854 | 0.0873
x1 = 0.9085 | 0.0732
x1 = 0.9298 | 0.059
x1 = 0.9494 | 0.0441
x1 = 0.9675 | 0.0295
x1 = 0.9844 | 0.0145

C=CCCCCCC [oct-1-ene]
Settings | vapor or sublimation pressure [kPa]
[2] | 8.3

Cc1ccccc1 [toluene]
Settings | vapor or sublimation pressure [kPa]
[2] | 12.22

O [water]
Settings | vapor or sublimation pressure [kPa]
[2] | 12.29

COC [dimethyl ether] + c1ccccc1
[1]
Settings | excess molar enthalpy [kcal/mol]
x1 = 0.0637 | -0.00798
x1 = 0.1256 | -0.0153
x1 = 0.1857 | -0.0226
x1 = 0.2442 | -0.0287
x1 = 0.3011 | -0.0337
x1 = 0.3565 | -0.0382
x1 = 0.4104 | -0.0421
x1 = 0.4628 | -0.0449
x1 = 0.514 | -0.0468
x1 = 0.5638 | -0.0478
x1 = 0.6124 | -0.0478
x1 = 0.6597 | -0.0471
x1 = 0.7059 | -0.0452
x1 = 0.751 | -0.0428
x1 = 0.795 | -0.0385
x1 = 0.8379 | -0.0337
x1 = 0.8799 | -0.0275
x1 = 0.9208 | -0.0196
x1 = 0.9609 | -0.0104

COC [dimethyl ether] + Cc1ccccc1
[1]
Settings | excess molar enthalpy [kcal/mol]
x1 = 0.0753 | -0.0117
x1 = 0.1467 | -0.0217
x1 = 0.2145 | -0.0306
x1 = 0.279 | -0.0378
x1 = 0.3403 | -0.043
x1 = 0.3988 | -0.0476
x1 = 0.4545 | -0.0509
x1 = 0.5078 | -0.0533
x1 = 0.5587 | -0.054
x1 = 0.6075 | -0.0545
x1 = 0.6541 | -0.0535
x1 = 0.6989 | -0.0516
x1 = 0.7419 | -0.0492
x1 = 0.7831 | -0.0454
x1 = 0.8228 | -0.0406
x1 = 0.8609 | -0.0351
x1 = 0.8976 | -0.0282
x1 = 0.933 | -0.0199
x1 = 0.9671 | -0.0106

COC [dimethyl ether] + O
[1]
Settings | excess molar enthalpy [kcal/mol]
x1 = 0.0137 | -0.0315
x1 = 0.0363 | -0.0758
x1 = 0.0808 | -0.13
x1 = 0.1366 | -0.154
x1 = 0.2087 | -0.131
x1 = 0.3054 | -0.0954
x1 = 0.4418 | -0.0449
x1 = 0.5543 | -0.00351
x1 = 0.6487 | 0.0315
x1 = 0.7036 | 0.0516
x1 = 0.7649 | 0.0736
x1 = 0.8337 | 0.0987
x1 = 0.8713 | 0.0956
x1 = 0.9114 | 0.0832
x1 = 0.9542 | 0.0581

C=CCCCCCCCC [1-decene] + COC
[1]
Settings | excess molar enthalpy [kcal/mol]
x2 = 0.1265 | 0.0311
x2 = 0.2342 | 0.0555
x2 = 0.3269 | 0.0716
x2 = 0.4076 | 0.0824
x2 = 0.4784 | 0.0877
x2 = 0.5411 | 0.0904
x2 = 0.5971 | 0.0902
x2 = 0.6472 | 0.0877
x2 = 0.6924 | 0.0838
x2 = 0.7335 | 0.0787
x2 = 0.7708 | 0.072
x2 = 0.805 | 0.065
x2 = 0.8363 | 0.0576
x2 = 0.8652 | 0.0495
x2 = 0.892 | 0.0415
x2 = 0.9167 | 0.0332
x2 = 0.9397 | 0.0247
x2 = 0.9612 | 0.0163
x2 = 0.9812 | 0.00806

CCCCCCCCCCCC [dodecane]
Settings | vapor or sublimation pressure [kPa]
[2] | 0.2

C=CCCCCCC [oct-1-ene] + COC
[1]
Settings | excess molar enthalpy [kcal/mol]
x2 = 0.1071 | 0.0249
x2 = 0.2021 | 0.0447
x2 = 0.2868 | 0.0593
x2 = 0.363 | 0.0695
x2 = 0.4317 | 0.0758
x2 = 0.4941 | 0.0792
x2 = 0.551 | 0.0801
x2 = 0.6031 | 0.0793
x2 = 0.6509 | 0.077
x2 = 0.695 | 0.0734
x2 = 0.7358 | 0.0678
x2 = 0.7737 | 0.0622
x2 = 0.8089 | 0.0556
x2 = 0.8417 | 0.0486
x2 = 0.8724 | 0.0416
x2 = 0.9011 | 0.0334
x2 = 0.9281 | 0.0253
x2 = 0.9535 | 0.017
x2 = 0.9774 | 0.00842

c1ccccc1 [benzene]
Settings | vapor or sublimation pressure [kPa]
[2] | 35.47
